Test results published in US9604931B2, “Nuclear receptor binding agents” (GTx, Inc., priority 2007, dated 2017).
Entries after “also recorded” stand apart in the source; their conditions may differ.

Tests used:
[1] = tested on: ovariectomy-induced (postmenopausal) obesity model; experiment: Ovariectomy-induced obesity model; assay type: in vivo, female C57BL6 mice; settings: OVX mice
Method: For the ovariectomy-induced obesity model, 6 week old female C57BL6 mice were sham operated or ovariectomized and the study was carried out for 9 weeks as indicated above.
Since it was shown that β-SERMs affected body composition in an animal model of high fat diet-induced obesity, they might also be effective in an animal model of postmenopausal obesity.

[2] = tested on: LNCaP cells and human prostate stromal cells xenograft; experiment: LNCaP-stromal cell xenograft tumor growth; assay type: in vivo, nude mice; settings: 30 mg/kg/day for 21 days
Method: Prostate tumor xenografts were established with LNCaP cells and human prostate stromal cells in nude mice to establish the in vivo anti-proliferative effects of these ER-β NRBAs. A 4:1 ratio (based on cell number) of LNCaP:stroma cells was injected subcutaneously in nude mice and allowed to grow until they attained 100 mm^3 in volume, as measured by calipers. […] Tumor volumes were measured twice a week and percent tumor volume calculated, after 10, 14 and 21 days.

[3] = tested on: Ang II induced hypertension; experiment: Angiotensin II model, blood pressure; assay type: in vivo, ovariectomized C57/BJ6 and ERβKO mice; design: Systolic pressure / Diastolic pressure: unit: mmHg; settings: for Diastolic pressure / Systolic pressure: Ang II
Method: Thirty, ten week old female ovariectomized C57/BJ6 mice, were obtained from Harlan/Sprague Dawley and were housed in 12 hour on/off lighting and fed rodent chow devoid of soy or most plant products. Ovariectomized ERβ gene-deleted (ERβKO or ERβ-KO) mice were obtained from Ken Korach, NIEHS. The ERβ mice were originally created by Drs. Smithies, Gustafsson, and colleagues. All mice were identically housed and fed the same chow.
This pellet is well documented to produce physiological levels of E2 in the serum of mice.
Blood pressure was measured 4 times during the 21-day period, using the CODA non-invasive blood pressure measuring system (Kent Scientific, Torrington, Conn.). Measurements were done by volume pressure recordings of the tail.

O=c1c2c(O)cc(O)cc2c(Br)cn1-c1ccc(O)cc1 [12u, 4-bromo-6,8-dihydroxy-2-(4-hydroxyphenyl)isoquinolin-1(2H)-one]
Body weight gain [1]: did not inhibit body weight gain
Fat mass (MRI) [1]: completely prevented the increase in fat mass
Feed consumption [1]: increased the feed consumption
Lean mass (MRI) [1]: significantly increased lean mass
Uterine weight [1]: without affecting uterine weight
WAT weight [1]: completely inhibited the WAT
Xenograft tumor growth [2]: inhibited the growth of tumor significantly
Ang II induced hypertension, diastolic pressure ([3]; ERβ-KO mice, 21 days): unchanged
Ang II induced hypertension, systolic pressure ([3]; ERβ-KO mice, 21 days): mildly reduced
Diastolic pressure ([3]; ERβKO, 7 days): 98
Systolic pressure ([3]; ERβKO, 7 days): 143
Diastolic pressure ([3]; ERβKO, 14 days): 98
Systolic pressure ([3]; ERβKO, 14 days): 147
Diastolic pressure ([3]; ERβKO, 21 days): 96
Systolic pressure ([3]; ERβKO, 21 days): 146
Diastolic pressure ([3]; ERβKO, time 0): 87
Systolic pressure ([3]; ERβKO, time 0): 123
Diastolic pressure ([3]; WT, 7 days): 88
Systolic pressure ([3]; WT, 7 days): 120
Diastolic pressure ([3]; WT, 14 days): 87
Systolic pressure ([3]; WT, 14 days): 125
Diastolic pressure ([3]; WT, 21 days): 86
Systolic pressure ([3]; WT, 21 days): 130
Diastolic pressure ([3]; WT, time 0): 85
Systolic pressure ([3]; WT, time 0): 120
Ang II induced hypertension ([3]; wildtype mice, 21 days): largely prevented; also recorded: prevented Ang II induced cardiac hypertension
